Source: PubChem BioAssay (NCI)
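Values below derive from 48-hour exposures of cells grown in 96-well plates, with endpoints linearly interpolated between the two concentrations bracketing the appropriate inhibition level. GI50 marks 50% less growth. TGI: concentration producing complete growth inhibition.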

Test system: TK-10 renal
Assay: growth of human tumour cells (NCI), 48 h

Question: Which results are given for COc1cc2nc(-c3ccc(Cl)cc3)cc(OCCCN3CCCCC3)c2cc1OC?
Answer: GI50: 3.73 µM; TGI: > 100 µM

Question: Which TGI does the source give for COc1ccc2c3c([nH]c2c1[N+](=O)[O-])C(C)=NCC3 here?
Answer: The TGI was greater than 100 µM.

Question: CC(C)(C)CC(C)(C)c1cc2c(O)c(c1)Cc1cc(C(C)(C)CC(C)(C)C)cc(c1O)Cc1cc(C(C)(C)CC(C)(C)C)cc(c1O)Cc1cc(C(C)(C)CC(C)(C)C)cc(c1O)C2 was tested. Which TGI did it give?
Answer: The TGI was greater than 100 µM.

Question: Which TGI does the source give for Cc1cc([N+](=O)[O-])ccc1Nc1cccc(Cl)c1C here?
Answer: The TGI was 30 µM.

Question: O=C(O)C1C2C=CC(O2)C1C(=O)NCc1ccccn1 (centres undefined) was tested. Which TGI did it give?
Answer: The TGI was greater than 100 µM.

Question: With CC1=C(C(=O)Nc2ccccc2)C(c2ccccc2)C(C(=O)Nc2ccccc2)=C(C)N1 as the compound, how does the TGI read?
Answer: The TGI was greater than 100 µM.

Question: Which results are given for O=C(OC(CNc1cc(=O)n(Cc2ccccc2)c(=O)n1Cc1ccccc1)CN1CCCC1)c1ccccc1 (centres undefined)?
Answer: GI50: > 100 µM; TGI: > 100 µM

Question: Cc1nn(-c2ccccc2)c2nc(N3CCOCC3)nnc12 was tested. Which TGI did it give?
Answer: The TGI was greater than 100 µM.

Question: For CCOC(=O)CCCn1c(SC)nc2[nH]cc(-c3ccccc3)c2c1=O, which GI50 is on record?
Answer: The GI50 was 46.1 µM.

Question: What about the TGI of the same compound?
Answer: The TGI was greater than 100 µM.

Question: How did the GI50 turn out when CCN(CC)CCOc1ccc(-c2nc3cc(Cl)ccc3s2)cc1 was run?
Answer: Its GI50 is 1.31 µM.

Question: What about the TGI of the same compound?
Answer: The TGI was 2.61 µM.

Question: For CNC(=O)N(C)N=NCCCl, which TGI is on record?
Answer: The TGI was greater than 100 µM.

Question: How did the TGI turn out when CCOc1ccccc1C=C1c2ccccc2C(=O)c2ccccc21 was run?
Answer: Its TGI is 45.6 µM.

Question: Which TGI does the source give for O=C(CCn1[nH]c(=O)c(Cl)c(Cl)c1=O)NO here?
Answer: The TGI was greater than 100 µM.

Question: Which GI50 does the source give for CCN1CCN(C(c2ccc(C(F)(F)F)cc2)c2ccc3cccnc3c2O)CC1 (centres undefined) here?
Answer: The GI50 was 10 µM.

Question: And the TGI?
Answer: Its TGI is 22 µM.

Question: For [N-]=[N+]=NC12CC3C4CC5CC3C(C1)C(C5)C4C2, which TGI is on record?
Answer: Its TGI is greater than 100 µM.

Question: How did the TGI turn out when CN(C)c1nc2ccccc2[nH]1 was run?
Answer: Its TGI is greater than 100 µM.

Question: Which TGI does the source give for NNC(=S)N/N=C(\CC1OC(=O)c2ccccc21)c1ccccc1O (centres undefined) here?
Answer: The TGI was greater than 100 µM.

Question: For COC(=O)C1=C(O)c2cc(OC)c(OC)cc2C(c2ccc(OC)c(OC)c2)C1 (centres undefined), which TGI is on record?
Answer: Its TGI is greater than 100 µM.

Question: Which TGI does the source give for COC1(OC)CC2C(=O)N(Cc3ccccc3)C1C(S(=O)(=O)c1ccccc1)C2S(=O)(=O)c1ccccc1 (centres undefined) here?
Answer: Its TGI is 28.5 µM.

Question: How did the TGI turn out when NC(=Nc1c([N+](=O)[O-])cnc2ccccc12)N1CCOCC1 was run?
Answer: The TGI was greater than 100 µM.

Question: Cc1cc(CC(O)c2ccc(Cl)c(Cl)c2)nc(=O)[nH]1 (centres undefined) was tested. Which TGI did it give?
Answer: The TGI was greater than 100 µM.

Question: How did the TGI turn out when COC(=O)C(=Cc1cc(OC)ccc1OC)C(=O)OC was run?
Answer: Its TGI is 97.4 µM.

Question: For CC1=NNC(=O)C2CCC(=O)N12 (centres undefined), which TGI is on record?
Answer: The TGI was greater than 100 µM.

Question: CC(C)c1ccccc1NC(=O)CCc1n[nH]c(=S)o1 was tested. Which TGI did it give?
Answer: The TGI was greater than 100 µM.

Question: With CCCCC(C(=O)C(=O)NC1C2CC3CC(C2)CC1C3)C(=O)C(C)C (centres undefined) as the compound, how does the TGI read?
Answer: Its TGI is greater than 100 µM.

Question: For COC(=O)c1cc2c(s1)C(=O)c1ccccc1-2, which TGI is on record?
Answer: The TGI was greater than 100 µM.

Question: For Cn1c2c(c3ccccc31)C1CCCCCCC1C1C(=O)OC(=O)C21 (centres undefined), which TGI is on record?
Answer: The TGI was greater than 100 µM.

Question: Which TGI does the source give for Cc1ccc(S(=O)(=O)N(CC(=O)O)c2ccccc2)cc1 here?
Answer: The TGI was greater than 100 µM.

Question: For COc1ccc(C(=O)C(c2ccc(OC)cc2)C2(O)C(=O)Nc3ccc([N+](=O)[O-])cc32)cc1 (centres undefined), which TGI is on record?
Answer: The TGI was greater than 100 µM.

Question: O=C(/C=C/c1ccccc1O)c1ccccc1O was tested. Which TGI did it give?
Answer: The TGI was greater than 100 µM.

Question: Which TGI does the source give for N#CC(N)(C(=O)CCC(=O)Nc1cccc(Cl)c1)c1ccc(Cl)cc1 (centres undefined) here?
Answer: Its TGI is greater than 100 µM.

Question: With S=C(Nc1ccccc1)N(/N=C/C=C/c1ccccc1)c1nnc(-c2ccccc2)c(-c2ccccc2)n1 as the compound, how does the TGI read?
Answer: Its TGI is greater than 100 µM.

Question: How did the GI50 turn out when CN1CCN(CCOc2ccc(-c3cnc4c(-c5ccccc5F)cnn4c3)cc2)CC1 was run?
Answer: The GI50 was 2.09 µM.

Question: And the TGI?
Answer: Its TGI is 3.9 µM.

Question: Which TGI does the source give for CN(C)N=Nc1ccc(NC=O)cc1 here?
Answer: The TGI was greater than 100 µM.

Test system: UACC-257 melanoma
Assay: growth of human tumour cells (NCI), 48 h

Question: CC(C)N(C(=O)C12C3C4C5(C#N)C3C1(C#N)C5C42I)C(C)C (centres undefined) was tested. Which TGI did it give?
Answer: The TGI was greater than 100 µM.

Question: COc1cc2nc(-c3ccc(Cl)cc3)cc(OCCCN3CCCCC3)c2cc1OC was tested. Which GI50 did it give?
Answer: The GI50 was 1.92 µM.

Question: And the TGI?
Answer: Its TGI is 4.46 µM.

Question: For COc1ccc2c3c([nH]c2c1[N+](=O)[O-])C(C)=NCC3, which TGI is on record?
Answer: Its TGI is greater than 100 µM.

Question: With CC(C)(C)CC(C)(C)c1cc2c(O)c(c1)Cc1cc(C(C)(C)CC(C)(C)C)cc(c1O)Cc1cc(C(C)(C)CC(C)(C)C)cc(c1O)Cc1cc(C(C)(C)CC(C)(C)C)cc(c1O)C2 as the compound, how does the TGI read?
Answer: The TGI was greater than 100 µM.

Question: How did the TGI turn out when Cc1cc([N+](=O)[O-])ccc1Nc1cccc(Cl)c1C was run?
Answer: The TGI was 40.4 µM.

Question: With O=C(O)C1C2C=CC(O2)C1C(=O)NCc1ccccn1 (centres undefined) as the compound, how does the TGI read?
Answer: The TGI was greater than 100 µM.

Question: CC1=C(C(=O)Nc2ccccc2)C(c2ccccc2)C(C(=O)Nc2ccccc2)=C(C)N1 was tested. Which TGI did it give?
Answer: The TGI was greater than 100 µM.

Question: Which GI50 does the source give for O=C(OC(CNc1cc(=O)n(Cc2ccccc2)c(=O)n1Cc1ccccc1)CN1CCCC1)c1ccccc1 (centres undefined) here?
Answer: Its GI50 is greater than 100 µM.

Question: What about the TGI of the same compound?
Answer: The TGI was greater than 100 µM.

Question: Cc1nn(-c2ccccc2)c2nc(N3CCOCC3)nnc12 was tested. Which TGI did it give?
Answer: The TGI was greater than 100 µM.

Question: Which results are given for CCOC(=O)CCCn1c(SC)nc2[nH]cc(-c3ccccc3)c2c1=O?
Answer: GI50: 22.7 µM; TGI: 44.3 µM

Question: What does the source list for CCN(CC)CCOc1ccc(-c2nc3cc(Cl)ccc3s2)cc1?
Answer: GI50: 1.78 µM; TGI: 3.62 µM

Question: Which TGI does the source give for CNC(=O)N(C)N=NCCCl here?
Answer: The TGI was greater than 100 µM.

Question: With CCOc1ccccc1C=C1c2ccccc2C(=O)c2ccccc21 as the compound, how does the TGI read?
Answer: Its TGI is 47 µM.

Question: With O=C(CCn1[nH]c(=O)c(Cl)c(Cl)c1=O)NO as the compound, how does the TGI read?
Answer: The TGI was greater than 100 µM.

Question: Which GI50 does the source give for CCN1CCN(C(c2ccc(C(F)(F)F)cc2)c2ccc3cccnc3c2O)CC1 (centres undefined) here?
Answer: The GI50 was 2.06 µM.

Question: And the TGI?
Answer: Its TGI is 6.69 µM.

Question: Which TGI does the source give for [N-]=[N+]=NC12CC3C4CC5CC3C(C1)C(C5)C4C2 here?
Answer: Its TGI is greater than 100 µM.

Question: With CN(C)c1nc2ccccc2[nH]1 as the compound, how does the TGI read?
Answer: The TGI was greater than 100 µM.

Question: NNC(=S)N/N=C(\CC1OC(=O)c2ccccc21)c1ccccc1O (centres undefined) was tested. Which TGI did it give?
Answer: The TGI was greater than 100 µM.

Question: How did the TGI turn out when COC(=O)C1=C(O)c2cc(OC)c(OC)cc2C(c2ccc(OC)c(OC)c2)C1 (centres undefined) was run?
Answer: Its TGI is greater than 100 µM.

Question: For COC1(OC)CC2C(=O)N(Cc3ccccc3)C1C(S(=O)(=O)c1ccccc1)C2S(=O)(=O)c1ccccc1 (centres undefined), which TGI is on record?
Answer: Its TGI is 21.1 µM.

Question: Which TGI does the source give for Cc1cc(CC(O)c2ccc(Cl)c(Cl)c2)nc(=O)[nH]1 (centres undefined) here?
Answer: The TGI was greater than 100 µM.

Question: Which TGI does the source give for COC(=O)C(=Cc1cc(OC)ccc1OC)C(=O)OC here?
Answer: Its TGI is 35.1 µM.

Question: For CC1=NNC(=O)C2CCC(=O)N12 (centres undefined), which TGI is on record?
Answer: The TGI was greater than 100 µM.

Question: CC(C)c1ccccc1NC(=O)CCc1n[nH]c(=S)o1 was tested. Which TGI did it give?
Answer: The TGI was greater than 100 µM.

Question: How did the TGI turn out when CCCCC(C(=O)C(=O)NC1C2CC3CC(C2)CC1C3)C(=O)C(C)C (centres undefined) was run?
Answer: The TGI was greater than 100 µM.

Question: For COC(=O)c1cc2c(s1)C(=O)c1ccccc1-2, which TGI is on record?
Answer: Its TGI is greater than 100 µM.

Question: Cc1ccc(S(=O)(=O)N(CC(=O)O)c2ccccc2)cc1 was tested. Which TGI did it give?
Answer: Its TGI is greater than 100 µM.

Question: With COc1ccc(C(=O)C(c2ccc(OC)cc2)C2(O)C(=O)Nc3ccc([N+](=O)[O-])cc32)cc1 (centres undefined) as the compound, how does the TGI read?
Answer: The TGI was greater than 100 µM.

Question: With O=C(/C=C/c1ccccc1O)c1ccccc1O as the compound, how does the TGI read?
Answer: Its TGI is greater than 100 µM.

Question: With N#CC(N)(C(=O)CCC(=O)Nc1cccc(Cl)c1)c1ccc(Cl)cc1 (centres undefined) as the compound, how does the TGI read?
Answer: The TGI was greater than 100 µM.

Question: Which TGI does the source give for S=C(Nc1ccccc1)N(/N=C/C=C/c1ccccc1)c1nnc(-c2ccccc2)c(-c2ccccc2)n1 here?
Answer: The TGI was greater than 100 µM.

Question: For CN1CCN(CCOc2ccc(-c3cnc4c(-c5ccccc5F)cnn4c3)cc2)CC1, which GI50 is on record?
Answer: Its GI50 is 1.87 µM.

Question: And the TGI?
Answer: The TGI was 3.41 µM.

Question: CN(C)N=Nc1ccc(NC=O)cc1 was tested. Which TGI did it give?
Answer: The TGI was greater than 100 µM.
